Consider one molecule from article PMC12029309, “Synthesis and Antifungal Activity of 1,2,4-Oxadiazole Derivatives” (Molecules, 2025).

Converted amounts (≈) assume the structure as drawn.

Usually IC50 stands for the concentration that inhibits the measured activity by half. A low value points to inhibition by little substance. One may read the inhibition as the share of the control response that was lost under treatment.

A short description of data set [1]: MTT cytotoxicity evaluation on MCF-7 cells. The class given is cell-based. To be noted: human, range 0~100 μM. On the procedure:
Cells were incubated at 37 °C in an incubator with 5% CO2. Cell viability was determined using the MTT assay. Briefly, MCF-7 cell lines were seeded at 5000–8000 cells/well in 96-well plates. […] Following a continuous 24 h of incubation, the culture medium was replaced by 90 μL fresh culture medium, and 10 μL MTT solution was added.

In another data set the test system is R. solani. Nature of the data set: microbe, parasite or virus in culture. To be noted: Rhizoctonia solani. The class given is cell-based.
The test system of the next data set is F. graminearum. Nature of the data set: microbe, parasite or virus in culture. Type of data set: cell-based. To be noted: Fusarium graminearum.
Another data set relates to E. turcicum. Nature of the data set: Mycelial growth inhibition test in vitro (E. turcicum). The class given is cell-based. To be noted: Exserohilum turcicum.
In a further data set the test system is B. cinerea. The data set can be described thus: Mycelial growth inhibition test in vitro (B. cinerea). Type of data set: cell-based. As to conditions: Botrytis cinerea; 50 μg/mL, mean ± SD of three replicates; read-out: The Inhibition Rate (%) B. cinerea. On the procedure: (§1) The antifungal activity of the target compound was tested by the mycelial growth inhibition rate method. The compounds were detected at a concentration of 50 μg/mL, and carbendazim was used as the positive control. The antifungal activity was carried out according to literature reports. After drilling the mycelium (3 mm), it was inoculated into the PDA medium containing compounds, and the Petri dish was put into the incubator at 25 °C for 12-48 h; then, the colony diameter was measured with 50 index vernier caliper by the cross method, and the data were recorded. […] • A: The average diameter of the blank medium colony. • B: Diameter of mushroom cake (3 mm). • C: The average diameter of the colonies in the medium containing compound.

In data set [2] the test system is C. capsica. Nature of the data set: Mycelial growth inhibition test in vitro (C. capsica). To be noted: Colletotrichum. Type of data set: cell-based. On the procedure: as §1, with “compound. […] The PDA medium containing different concentrations of the compound was prepared by the two-fold dilution method, the final concentration of the compound in the medium was adjusted to 0-100.00 μg/mL, and three parallel samples were set for each concentration. […] The toxicity regression equation of the tested compound was obtained, taking the logarithm of compound concentration (lgc) as the independent variable (x) and the probability value of inhibition rate as the dependent variable (y), and the EC50 value of each tested compound was calculated.” for “compound.”

Data set [3] relates to C. capsica. The data set can be described thus: Antifungal activity in vivo: protective effect on detached pepper infected by C. capsica. The arrangement: species or system Colletotrichum capsica. To be noted: 5 days. On the procedure:
The protective effects of compounds 4q and 4f and carbendazim on pepper infected by […] studied. […] The peppers were washed with water and dried, and the surface was wiped with 75% ethanol for sterilization. The infected area was pricked with a diameter of 4 mm on the surface of the green pepper with a sterile inoculation needle. After spraying the antifungus compound solution on the surface and resting for 12 h, the activated cake (4 mm in diameter) was inoculated into the infected area. After culturing at 25 °C for 1 to 7 days, the plaque diameter was measured by the cross method, and the efficacy was calculated according to Formula (2).(2) Control efficacy%=A-B/A-C×100% • A: The average diameter of the blank medium colony. • B: The average diameter of the colonies in the medium containing compound. • C: Diameter of mushroom cake (3 mm/4 mm).

In the case of `COc1ccc(-c2noc(-c3ccc(O)c(O)c3)n2)cc1OC` [Compound 4q, 4-(3-(3,4-Dimethoxyphenyl)-1,2,4-oxadiazol-5-yl)benzene-1,2-diol], the IC50 at 24 h in data set [1] is not below 100 µM. Moreover, the EC50 in the data set with R. solani (read-out: EC50 (μg/mL) R. solani) worked out at 38.9 µg/mL (≈ 124 µM); in the data set on F. graminearum (read-out: EC50 (μg/mL) F. graminearum), 149 µg/mL (≈ 475 µM); in the data set on E. turcicum (read-out: EC50 (μg/mL) E. turcicum), 229 µg/mL (≈ 729 µM); in the data set with C. capsica [2] (read-out: EC50 (μg/mL) C. capsica), 41.7 µg/mL (≈ 133 µM). Also, the inhibition at 50 µg/mL in the data set with R. solani (read-out: The Inhibition Rate (%) R. solani) is 47.8 ± 8.13%; with F. graminearum (read-out: The Inhibition Rate (%) F. graminearum) it was 43.5 ± 3.7%; in the data set on E. turcicum (50 μg/mL, mean ± SD of three replicates, read-out: The Inhibition Rate (%) E. turcicum), 43.5 ± 0.99%; in the data set on B. cinerea it was 32.8 ± 12.2%; in the data set with C. capsica [2] (50 μg/mL, mean ± SD of three replicates, read-out: The Inhibition Rate (%) C. capsica), 55.5 ± 1.34%. Also, the “Control efficacy (%)” value is given as 50.12% with C. capsica [3] (500 μg/mL) and 76.83% in the data set on C. capsica [3] (1000 μg/mL).
